Assay results as given in article PMC6317804, “The integration of pharmacophore-based 3D QSAR modeling and virtual screening in safety profiling: A case study to identify antagonistic activities against adenosine receptor, A2A, using 1,897 known drugs” (PLoS ONE, 2019).
Read-outs that look alike come from different tables or passages of the source.

What was measured:
[1] = biological target: T1, adenosine receptor 2A (A2A) (Homo sapiens, UniProt P29274); conditions: cited from earlier work; for IC50: S1 Table, compounds given as SMILES, downloaded from ChEMBL; for measured pIC50: training set compound, negative logarithm of IC50
T1 construct: CEREP (Poitiers, France), paid service
T1 sequence (P29274 whole entry): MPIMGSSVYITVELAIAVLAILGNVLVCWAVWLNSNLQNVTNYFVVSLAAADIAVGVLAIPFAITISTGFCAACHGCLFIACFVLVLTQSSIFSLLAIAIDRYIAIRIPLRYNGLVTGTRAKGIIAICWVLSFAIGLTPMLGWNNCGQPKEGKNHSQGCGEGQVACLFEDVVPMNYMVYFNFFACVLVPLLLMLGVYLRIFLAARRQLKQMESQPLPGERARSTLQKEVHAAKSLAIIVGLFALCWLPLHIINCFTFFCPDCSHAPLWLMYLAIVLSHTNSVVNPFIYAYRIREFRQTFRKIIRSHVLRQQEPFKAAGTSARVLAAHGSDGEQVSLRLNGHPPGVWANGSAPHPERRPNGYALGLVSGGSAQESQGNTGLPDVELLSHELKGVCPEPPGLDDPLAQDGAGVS

[2] = biological target: T1, adenosine receptor 2A (A2A); assay: Functional assay monitoring Ca2+ flux (DiscoveRx); format: cell-based; set-up: inhibition: dose or concentration left out as unconfirmed; conditions: for inhibition: read-out: IC50, Ca2+, M
Procedure: (§1) Competition binding assay using radioactive ligands and functional assay monitoring cAMP were carried out as a paid service provided by CEREP (Poitiers, France). The functional assays monitoring Ca^2+ flux were carried out as a paid service provided by DiscoveRx (Carlsbad, CA).

[3] = biological target: T1, adenosine receptor 2A (A2A); assay: Functional antagonist assay monitoring cAMP (CEREP); format: cell-based;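 as to IC50, cAMP, M: eight-point concentration-response from 0 to 10 µM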
Procedure: as §1

[4] = biological target: T1, adenosine receptor 2A (A2A); assay: Competition binding assay using radioactive ligands (CEREP); set-up: inhibition: dose or concentration left out as unconfirmed; conditions: for inhibition at 10 µM: fixed compound concentration of 10 μM;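 as to all read-outs here: compounds screened at a single fixed 10 µM concentration for displacement of a radioligand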
Procedure: as §1

[5] = concentration-response up to 10 μM, read-out: IC50, cAMP
[6] = concentration-response up to 10 μM, read-out: IC50, Ca2+

Row | Compound | IC50 [1] [µM] | further results
1 | CCNc1cc2nc(NCc3cccnc3)nc(C(=O)c3cccs3)c2s1 | 2.48 | –
2 | CCOC(=O)Nc1cc(-c2cncc(OC)c2)nc(-n2nc(C)cc2C)n1 | 0.196 | –
3 | Cc1ccc(C(=O)c2nc(NC(C)c3ccccc3)nc3ccsc23)s1 (centres unmarked) | 1.08 | –
4 | Cc1ccc(C(=O)c2nc(NC(C)c3ccccn3)nc3ccsc23)s1 (centres unmarked) | 0.118 | –
5 | Cc1ccc(C(=O)c2nc(NC(C)c3cccnc3)nc3ccsc23)s1 (centres unmarked) | 0.099 | –
6 | CC(=O)Nc1cc(-c2cccc(N3CCC(O)CC3)n2)nc(-n2nc(C)cc2C)n1 | 0.022 | –
7 | CC(=O)Nc1cc(-c2cncc(O)c2)nc(-n2nc(C)cc2C)n1 | 0.064 | –
8 | CCc1ccccc1-n1nc(C)c(-c2ccc3nccnc3c2)c1Nc1ccc(OC)cc1C(=O)O | 50 | –
9 | CCc1nn(-c2ccccc2C)c(Nc2ccccc2C(=O)O)c1-c1ccc2nccnc2c1 | 50 | –
10 | CN(C)c1cc2nc(NCc3cccnc3)nc(C(=O)c3cccs3)c2s1 | 1.42 | –
11 | Cc1ccc(C(=O)c2nc(N(C)Cc3cccnc3)nc3ccsc23)s1 | 2.27 | –
12 | CNc1cc2nc(NCc3cccnc3)nc(C(=O)c3cccs3)c2s1 | 0.965 | –
13 | COC(=O)Nc1cc(-c2cncc(OC)c2)nc(-n2nc(C)cc2C)n1 | 0.167 | –
14 | COc1ccc(CCCn2ncc3c2nc(N)n2nc(-c4ccco4)nc32)cc1OC | 0.02 | –
15 | COc1ccc(Nc2c(-c3ccc4nccnc4c3)c(C)nn2-c2ccccc2C)c(C(=O)O)c1 | 50 | –
16 | COc1ccc(Nc2c(-c3ccc4nccnc4c3)c(C)nn2-c2ccccc2Cl)c(C(=O)O)c1 | 50 | –
17 | COc1ccc(C(=O)c2nc(NCc3cccnc3)nc3ccsc23)cc1 | 0.637 | –
18 | COc1cccc(-c2cc(NC(C)=O)nc(-n3nc(C)cc3C)n2)c1F | 0.032 | –
19 | C[C@H](Nc1nc(C(=O)N2CCCC2)c2sccc2n1)c1cccnc1 | 0.468 | –
20 | C[C@@H](Nc1nc(C(=O)N2CCCC2)c2sccc2n1)c1cccnc1 | 6.76 | –
21 | Cc1ccc(Nc2c(-c3ccc4nccnc4c3)c(C)nn2-c2ccccc2C)c(C(=O)O)c1 | 50 | –
22 | Cc1ccc(C(=O)c2nc(NCc3cccnc3)nc3ccsc23)cc1 | 0.442 | –
23 | Cc1ccc(C(=O)c2nc(NCCc3ccccn3)nc3ccsc23)s1 | 0.351 | –
24 | Cc1ccc(C(=O)c2nc(NCCc3cccnc3)nc3ccsc23)s1 | 0.177 | –

Row | Compound | IC50 [1] [µM] | further results
25 | Cc1ccc(C(=O)c2nc(NC(=O)c3cccnc3)nc3ccsc23)s1 | 0.161 | –
26 | Cc1ccccc1-n1nc(C)c(-c2cc(F)c3nccnc3c2)c1Nc1ccccc1C(=O)O | 50 | –
27 | Cc1ccccc1-n1nc(C)c(-c2ccc3nccnc3c2)c1Nc1ccc(Cl)cc1C(=O)O | 50 | –
28 | Cc1ccccc1-n1nc(C(F)(F)F)c(-c2ccc3nccnc3c2)c1Nc1ccccc1C(=O)O | 50 | –
29 | Cc1ccccc1-n1ncc(-c2ccc3nccnc3c2)c1Nc1ccccc1C(=O)O | 50 | –
30 | CCNc1c2c(nc(NC(=O)Nc3ccc(OC)cc3)n3nc(-c4ccco4)nc23)nn1C | 0.061 | –
31 | O=C(c1cccs1)c1nc(NCc2cccnc2)nc2cc(Cl)sc12 | 0.062 | –
32 | O=C(c1ccc(Cl)s1)c1nc(NCc2cccnc2)nc2ccsc12 | 1.54 | –
33 | Nc1nc2c(cnn2CCCc2ccc(O)cc2)c2nc(-c3ccco3)nn12 | 0.01 | –
34 | Nc1nc2c(cnn2CCc2ccc(OCc3ccccc3)cc2)c2nc(-c3ccco3)nn12 | 0.09 | –
35 | Nc1nc2c(cnn2Cc2ccc(OCc3ccccc3)cc2)c2nc(-c3ccco3)nn12 | 0.5 | –
36 | 5-methoxy-2-((3-methyl-1-phenyl-4-(quinoxalin-6-yl)-1H-pyrazol-5-yl)amino)benzoic acid | 5.5 | IC50 ([1]; listed as COc1ccc(Nc2c(c(C)nn2C3CCCCC3)c4ccc5nccnc5c4)c(c1)C(=O)O): 50 µM; measured pIC50 [1]: 4.3
37 | N=C(N)NC(=O)c1nc(Cl)c(N)nc1N [Amiloride] | – | inhibition [2]: < 50%; inhibition ([3]; read-out: IC50, cAMP, M): < 50%; inhibition ([4]; read-out: %inhibition, binding): 53%
38 | Cc1cc2c(OCC(CNC(C)(C)C)OC(=O)c3ccccc3)cccc2[nH]1 (centres unmarked) [Bopindolol] | – | inhibition [2]: < 50%; inhibition at up to 10 µM [3, 5]: < 50%; inhibition at 10 µM [4]: < 50%
39 | CC(C)C[C@H](NC(=O)[C@H](Cc1ccccc1)NC(=O)c1cnccn1)B(O)O [Bortezomib] | – | inhibition [2]: < 50%; inhibition at up to 10 µM [3, 5]: < 50%; inhibition at 10 µM [4]: < 50%
40 | COc1ccccc1Oc1c(NS(=O)(=O)c2ccc(C(C)(C)C)cc2)nc(-c2ncccn2)nc1OCCO [Bosentan] | – | inhibition at 10 µM [2, 6]: < 50%; inhibition at 10 µM [3, 5]: < 50%; inhibition at 10 µM [4]: < 50%
41 | CC(C)NC(=O)c1nc(NCc2cccnc2)nc2ccsc12 [CC(C)NC(=O)c1nc(NCc2cccnc2)nc3ccsc13, N-isopropyl-2-((pyridin-3-ylmethyl)amino)thieno[3,2-d]pyrimidine-4-carboxamide] | – | measured pIC50 [1]: 5.6
42 | CC(Nc1nc(C(=O)N2CCCC2)c2sccc2n1)c1cccnc1 (centres unmarked) [CC(Nc1nc(C(=O)N2CCCC2)c3sccc3n1)c4cccnc4] | 2.35 | –
43 | CCCSc1c2c(nc(N)n3nc(-c4ccco4)nc23)nn1C [CCCSc1c2c(nc(N)n3nc(nc23)c4occc4)nn1C] | 0.0148 | –
44 | CCNC(=O)c1nc(NCc2cccnc2)nc2ccsc12 [CCNC(=O)c1nc(NCc2cccnc2)nc3ccsc13] | 2.52 | –
45 | CCNc1nc(C(=O)c2ccc(C)s2)c2sccc2n1 [CCNc1nc(C(=O)c2ccc(C)s2)c3sccc3n1] | 0.126 | –
46 | CCc1nc(C(=O)c2ccc(C)s2)c2sccc2n1 [CCc1nc(C(=O)c2ccc(C)s2)c3sccc3n1] | 3.85 | –
47 | CSc1c2c(nc(N)n3nc(-c4ccco4)nc23)nn1C [CSc1c2c(nc(N)n3nc(nc23)c4occc4)nn1C] | 0.0061 | –
48 | C=CCN1C[C@H](C(=O)N(CCCN(C)C)C(=O)NCC)C[C@@H]2c3cccc4[nH]cc(c34)C[C@H]21 [Cabergoline] | – | inhibition [2]: < 50%; inhibition at up to 10 µM [3, 5]: < 50%; inhibition at 10 µM [4]: < 50%

Row | Compound | IC50 [1] [µM] | further results
49 | CCCCCOC(=O)Nc1nc(=O)n([C@@H]2O[C@H](C)[C@@H](O)[C@H]2O)cc1F [Capecitabine] | – | inhibition [2]: < 50%; inhibition at up to 10 µM [3, 5]: < 50%; inhibition at 10 µM [4]: < 50%
50 | Cc1nc(C(=O)c2ccc(C)s2)c2sccc2n1 [Cc1ccc(s1)C(=O)c2nc(C)nc3ccsc23] | 7.85 | –
51 | Cc1ccc(C(=O)c2nc(N)nc3ccsc23)s1 [Cc1ccc(s1)C(=O)c2nc(N)nc3ccsc23] | 0.22 | –
52 | Cc1ccc(C(=O)c2nc(NCC3CCCCC3)nc3ccsc23)s1 [Cc1ccc(s1)C(=O)c2nc(NCC3CCCCC3)nc4ccsc24] | 10 | IC50 ([1]; listed as Cc1ccc(s1)C(=O)c2nc(NCc3ccccc3)nc4ccsc24): 7.15 µM
53 | Cc1ccc(C(=O)c2nc(NCc3ccccn3)nc3ccsc23)s1 [Cc1ccc(s1)C(=O)c2nc(NCc3ccccn3)nc4ccsc24] | 0.186 | –
54 | Cc1ccc(C(=O)c2nc(NCc3cccnc3)nc3ccsc23)s1 [Cc1ccc(s1)C(=O)c2nc(NCc3cccnc3)nc4ccsc24] | 0.99 | –
55 | Cc1ccc(C(=O)c2nc(NCc3ccncn3)nc3ccsc23)s1 [Cc1ccc(s1)C(=O)c2nc(NCc3ccncn3)nc4ccsc24] | 0.116 | measured pIC50 [1]: 6.9
56 | Cc1ccc(C(=O)c2ncnc3ccsc23)s1 [Cc1ccc(s1)C(=O)c2ncnc3ccsc23] | 6.69 | –
57 | Cc1ccc(C(=O)c2nc(NCc3cccnc3)nc3ccsc23)o1 [Cc1oc(cc1)C(=O)c2nc(NCc3cccnc3)nc4ccsc24] | 1.25 | –
58 | CC1=C(C(=O)O)N2C(=O)[C@@H](NC(=O)[C@H](N)c3ccc(O)cc3)[C@H]2SC1 [Cefadroxil] | – | inhibition at up to 10 µM [2, 6]: < 50%; inhibition at up to 10 µM [3, 5]: < 50%; inhibition at 10 µM [4]: < 50%
59 | C=CC1=C(C(=O)O)N2C(=O)[C@@H](NC(=O)/C(=N\O)c3csc(N)n3)[C@H]2SC1 [Cefdinir] | – | inhibition [2]: < 50%; inhibition at up to 10 µM [3, 5]: < 50%; inhibition at 10 µM [4]: < 50%
60 | C=CC1=C(C(=O)O)N2C(=O)[C@@H](NC(=O)/C(=N\OCC(=O)O)c3csc(N)n3)[C@H]2SC1 [Cefixime] | – | inhibition [2]: < 50%; inhibition at up to 10 µM [3, 5]: < 50%; inhibition at 10 µM [4]: < 50%
61 | CO[C@@]1(NC(=O)Cc2cccs2)C(=O)N2C(C(=O)O)=C(COC(N)=O)CS[C@@H]21 [Cefoxitin] | – | inhibition [2]: < 50%; inhibition at up to 10 µM [3, 5]: < 50%; inhibition at 10 µM [4]: < 50%
62 | Nc1cc2nc(NCc3cccnc3)nc(C(=O)c3cccs3)c2s1 [Nc1cc2nc(NCc3cccnc3)nc(C(=O)c4cccs4)c2s1] | 10 | –
63 | O=C(c1nc(NCc2cccnc2)nc2ccsc12)N1CCCC1 [O=C(N1CCCC1)c2nc(NCc3cccnc3)nc4ccsc24] | 6.14 | –
64 | O=C(NC1CC1)c1nc(NCc2cccnc2)nc2ccsc12 [O=C(NC1CC1)c2nc(NCc3cccnc3)nc4ccsc24] | 0.71 | –
65 | O=C(c1ccccc1)c1nc(NCc2cccnc2)nc2ccsc12 [O=C(c1ccccc1)c2nc(NCc3cccnc3)nc4ccsc24] | 1.62 | –
66 | O=C(c1cccnc1)c1nc(NCc2cccnc2)nc2ccsc12 [O=C(c1cccnc1)c2nc(NCc3cccnc3)nc4ccsc24] | 1.17 | –
67 | O=C(c1cccs1)c1nc(NCc2cccnc2)nc2ccsc12 [O=C(c1cccs1)c2nc(NCc3cccnc3)nc4ccsc24] | 0.051 | –
68 | O=C(c1ccncc1)c1nc(NCc2cccnc2)nc2ccsc12 [O=C(c1ccncc1)c2nc(NCc3cccnc3)nc4ccsc24] | 1.94 | –
69 | O=C(c1ccsc1)c1nc(NCc2cccnc2)nc2ccsc12 [O=C(c1ccsc1)c2nc(NCc3cccnc3)nc4ccsc24] | 0.405 | –
70 | O=C(c1cncs1)c1nc(NCc2cccnc2)nc2ccsc12 [O=C(c1cncs1)c2nc(NCc3cccnc3)nc4ccsc24] | 1.72 | –
71 | O=C(c1nccs1)c1nc(NCc2cccnc2)nc2ccsc12 [O=C(c1nccs1)c2nc(NCc3cccnc3)nc4ccsc24] | 0.732 | –
